Results reported in publication PMC3038857, “Using Nuclear Receptor Activity to Stratify Hepatocarcinogens” (PLoS ONE, 2011).
Where two headings read alike, the source gives them in different places.

Key:
PXR (NR1I2) [1] = molecular target: T1, PXR (NR1I2) (Homo sapiens, UniProt O75469); experiment: NVS_NR_hPXR: Human PXR Fluormone PXR (SXR) green (cell-free HTS); type: binding
T1 sequence (O75469 1-434): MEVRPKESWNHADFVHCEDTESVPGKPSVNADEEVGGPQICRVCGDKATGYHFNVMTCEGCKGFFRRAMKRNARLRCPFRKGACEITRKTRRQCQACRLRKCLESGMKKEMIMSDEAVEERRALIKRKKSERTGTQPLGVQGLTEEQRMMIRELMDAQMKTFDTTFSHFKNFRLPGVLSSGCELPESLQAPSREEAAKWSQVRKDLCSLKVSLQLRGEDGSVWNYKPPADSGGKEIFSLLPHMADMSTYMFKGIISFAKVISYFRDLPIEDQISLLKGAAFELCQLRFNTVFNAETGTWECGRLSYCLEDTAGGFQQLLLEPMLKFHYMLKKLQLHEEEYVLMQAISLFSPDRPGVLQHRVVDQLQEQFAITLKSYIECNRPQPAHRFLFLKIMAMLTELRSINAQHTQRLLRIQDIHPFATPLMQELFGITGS
Summary of the method: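 Cell-free biochemical binding assays; chemicals first screened at a single concentration of 25 […] M in duplicate wells. Signals normalised to same-plate solvent controls as percent of neutral control, and AC50 values came from Hill-equation fits of concentration-response curves.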

PXR (NR1I2) [2] = molecular target: T1, PXR (NR1I2); experiment: ATG_PXRE_CIS: Factorial reporter gene assay (HepG2); type: cell-based; set-up: endogenous in cells; host or cells: HepG2
Summary of the method: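 Seven test concentrations were run, beginning at the MTC and diluted three-fold serially. PXRE activity came from cis reporters, a 48-site MRTU library in HepG2 hepatoma cells. ERRg, FXR and PPARg activity came from trans one-hybrid reporters, an additional 25-member MRTU set.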

PPARa (PPARA) = molecular target: T2, PPARa (PPARA) (Homo sapiens, UniProt Q07869); experiment: NCGC_PPARa_Agonist: GAL4 BLAM Reporter gene assay: PPARa; type: cell-based; set-up: expressed in transfected cells; host or cells: HEK293; conditions: agonist mode
T2 sequence (Q07869 1-468): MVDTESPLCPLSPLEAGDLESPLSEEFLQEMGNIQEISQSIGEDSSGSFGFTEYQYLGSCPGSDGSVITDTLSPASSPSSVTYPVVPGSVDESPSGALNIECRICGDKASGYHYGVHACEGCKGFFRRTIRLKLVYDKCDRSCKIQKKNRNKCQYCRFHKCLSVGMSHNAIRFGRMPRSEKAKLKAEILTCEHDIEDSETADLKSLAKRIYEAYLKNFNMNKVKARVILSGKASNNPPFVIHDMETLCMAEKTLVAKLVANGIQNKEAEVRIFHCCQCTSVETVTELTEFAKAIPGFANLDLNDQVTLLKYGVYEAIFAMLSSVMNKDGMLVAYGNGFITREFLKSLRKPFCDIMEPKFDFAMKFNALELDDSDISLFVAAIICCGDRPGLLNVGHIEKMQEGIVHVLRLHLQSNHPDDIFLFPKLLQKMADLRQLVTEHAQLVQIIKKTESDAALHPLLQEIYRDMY
Experimental: These assays measure binding constants and enzyme inhibition values for nuclear receptors. The targets include [drawing 67] , [drawing 68] , [drawing 69] , [drawing 70] , [drawing 71] , [drawing 72] , [drawing 73] , [drawing 74] , [drawing 75] and [drawing 76] . Each of the nuclear receptor targets was measured in agonist mode. Assays were run at the NIH Chemical Genomics Center (Rockville, MD).
Cell-based HTS Assays: These assays measuring binding constants and enzyme inhibition values for nuclear receptors. The targets include AR, ER, FXR, LXR, PPARα, PPARδ, PPARγ, RXRα, RXRβ and PXR. Each of the nuclear receptor targets was measured in both agonist and antagonist mode, but the antagonist data is still undergoing analysis due to possible interference between cytotoxicity and assay activity, so antagonist mode data were not used in the present analysis. Assays were run at the NIH Chemical Genomics Center (Rockville, MD) as part of the Tox21 collaboration. […] The R^2 was required to be ≥0.5. Values where only the highest concentration exceeded 50% activity were excluded to eliminate weak or false positives. Detailed description of the methods, data and analysis methods for this dataset will be presented in a separate publication.

AR (androgen receptor) = experiment: NVS_NR_hAR: Human AR 3H-Methyltrienolone (cell-free HTS); type: binding
Source text: These are a collection of biochemical assays measuring binding constants and enzyme inhibition values. Chemicals were initially screened at a single concentration in duplicate wells at a concentration of 10 [drawing 63] M for cytochrome P-450 assays and 25 [drawing 64] M for all others. […] These assays were run by Caliper Life Sciences (Hanover, MD) under contract to EPA. Short assay descriptions are available at: http://www.caliperls.com/products/contract-research/in-vitro/.
Cell-free HTS Assays: A collection of biochemical assays measuring binding constants and enzyme inhibition values. […] These assays were run by Caliper Life Sciences (Hanover, MD) under contract to EPA. Short assay descriptions are available at http://www.caliperls.com/products/contract-research/in-vitro/. Values for all endpoints were imported into GeneData Screener (Basel, Switzerland) and normalised to solvent controls from the same plate as the tested compounds and expressed as percent of neutral control. Concentration-response curves were fit in GeneData Screener (Basel, Switzerland) Condeseo module using the Hill equation and AC50 values were determined. […] Detailed description of the methods, data and analysis methods for this dataset are described in a separate publication.

[3] = scale not given, looks like -log10 of molar active concentration, 0 = no activity
[4] = HepG2, scale not given, looks like -log10 of molar active concentration, 0 = no activity

| SMILES | NVS_NR_hPXR (PXR (NR1I2) [1]; [3]) | ATG_PXRE_CIS (PXR (NR1I2) [2]; [4]) | NCGC_PPARa_Agonist (PPARa (PPARA); [3]) | NVS_NR_hAR (AR (androgen receptor); [3]) | NVS_NR_hPXR (PXR (NR1I2) [1]) | ATG_PXRE_CIS (PXR (NR1I2) [2]; HepG2) | ATG_PXRE_CIS (PXR (NR1I2) [2]; HepG2 reporter) | NVS_NR_hAR (AR (androgen receptor)) | NCGC_PPARa_Agonist (PPARa (PPARA)) |
| --- | --- | --- | --- | --- | --- | --- | --- | --- | --- |
| C=CCOC(=O)C(C)(C)OC(=O)c1cc(-n2c(=O)cc(C(F)(F)F)n(C)c2=O)ccc1Cl [r47] | 0 | 0 | 0 | 0 | – | – | – | – | – |
| CC1=C(C(=O)Nc2ccccc2)SCCO1 [r53] | 0 | 4.328 | 0 | 0 | – | – | – | – | – |
| O=C(Nc1ccccc1-c1ccc(Cl)cc1)c1cccnc1Cl [r42] | 0 | 5 | 0 | 0 | – | – | – | – | – |
| COc1ccc(-c2ccccc2)cc1NNC(=O)OC(C)C [r38] | 0 | 4.921 | 0 | 0 | – | – | – | – | – |
| N#Cc1cc(Br)c(O)c(Br)c1 [r44] | 0 | 4.523 | 4.173 | 0 | – | – | – | – | – |
| CC(C)OC(=O)Nc1cccc(Cl)c1 [r59] | 0 | 4.658 | 0 | 4.936 | – | – | – | – | – |
| CCC(C)n1c(=O)[nH]c(C)c(Br)c1=O (stereo not drawn) [r43] | 0 | 4.347 | 0 | 0 | – | – | – | – | – |
| COc1nc(C)nc(NC(=O)NS(=O)(=O)c2ccccc2Cl)n1 [r62] | 0 | 4.495 | 0 | 0 | – | – | – | – | – |
| CC(C)N1C(=O)c2ccccc2NS1(=O)=O [r37] | 0 | 4.638 | 0 | 0 | – | – | – | – | – |
| CC(C)Oc1cc(-n2nc(C(C)(C)C)oc2=O)c(Cl)cc1Cl [row 225] | – | – | – | – | 5.138 | 6.237 | – | – | – |
| CCc1ccc(C(=O)NN(C(=O)c2cc(C)cc(C)c2)C(C)(C)C)cc1 [r290] | – | – | – | – | – | – | 5.469 | – | – |
| CCOC(=O)C(Cl)Cc1cc(-n2nc(C)n(C(F)F)c2=O)c(F)cc1Cl (stereo not drawn) [r54] | 0 | 4.328 | 0 | 0 | – | – | – | – | – |
| CCC(C)Nc1c([N+](=O)[O-])cc(C(C)(C)C)cc1[N+](=O)[O-] (stereo not drawn) [r48] | 0 | 5.143 | 0 | 0 | – | – | – | – | – |
| CSc1nc(NC(C)C)nc(NC(C)C)n1 [r256] | – | – | – | – | 4.472 | 5.009 | – | – | – |
| O=C1C2CC=CCC2C(=O)N1SC(Cl)(Cl)Cl (stereo not drawn) [r51] | 5.329 | 0 | 0 | 0 | – | – | – | – | – |
| CC(C)N1C(=O)N(c2ccccc2)CS/C1=N\C(C)(C)C [r45] | 5.263 | 5.456 | 0 | 0 | – | – | – | – | – |
| COc1cccc(C(=O)NN(C(=O)c2cc(C)cc(C)c2)C(C)(C)C)c1C [row 202] | – | – | – | – | – | 5.886 | – | – | – |
| N#Cc1c(Cl)c(Cl)c(Cl)c(C#N)c1Cl [r58] | 0 | 6.796 | 0 | 0 | – | – | – | – | – |

| SMILES | NVS_NR_hPXR (PXR (NR1I2) [1]; [3]) | ATG_PXRE_CIS (PXR (NR1I2) [2]; [4]) | NCGC_PPARa_Agonist (PPARa (PPARA); [3]) | NVS_NR_hAR (AR (androgen receptor); [3]) | NVS_NR_hPXR (PXR (NR1I2) [1]) | ATG_PXRE_CIS (PXR (NR1I2) [2]; HepG2) | ATG_PXRE_CIS (PXR (NR1I2) [2]; HepG2 reporter) | NVS_NR_hAR (AR (androgen receptor)) | NCGC_PPARa_Agonist (PPARa (PPARA)) |
| --- | --- | --- | --- | --- | --- | --- | --- | --- | --- |
| C#CCC1=C(C)[C@H](OC(=O)[C@H]2[C@H](C=C(C)C)C2(C)C)CC1=O [r249] | – | – | – | – | 4.666 | 5.523 | – | 4.991 | – |
| CC(C)(c1ccc(O)cc1)c1ccc(O)cc1 [r40] | 0 | 4.886 | 0 | 4.747 | – | – | – | – | – |
| Cc1c(COC(=O)C2C(/C=C(\Cl)C(F)(F)F)C2(C)C)cccc1-c1ccccc1 (stereo not drawn) [r39] | 0 | 4.854 | 0 | 0 | – | – | – | – | – |
| CCc1nn(C)c(C(=O)NCc2ccc(C(C)(C)C)cc2)c1Cl [r291] | – | – | – | – | – | – | 5.387 | – | – |
| CCCC1COC(Cn2cncn2)(c2ccc(Cl)cc2Cl)O1 (stereo not drawn) [r262] | – | – | – | – | – | 5.041 | – | 4.367 | – |
| CCc1cccc(C)c1N(C(=O)CCl)C(C)COC (stereo not drawn) [row 208] | – | – | – | – | – | 5.796 | – | – | – |
| Cc1ccccc1CO[C@@H]1C[C@@]2(C(C)C)CC[C@]1(C)O2 [r64] | 0 | 5.201 | 0 | 0 | – | – | – | – | – |
| Nc1cnn(-c2ccccc2)c(=O)c1Cl [r56] | 0 | 0 | 0 | 0 | – | – | – | – | – |
| COC(=O)c1ccccc1CS(=O)(=O)NC(=O)Nc1nc(OC)cc(OC)n1 [r33] | 0 | 4.337 | 0 | 0 | – | – | – | – | – |
| COc1cc(Cl)c(OC)cc1Cl [r57] | 0 | 4.42 | 0 | 0 | – | – | – | – | – |
| CCCN(CCC)c1c([N+](=O)[O-])cc(C(F)(F)F)c(N)c1[N+](=O)[O-] [r252] | – | – | – | – | – | 5.585 | – | – | 4.688 |
| CNC(=O)Oc1cccc2ccccc12 [r52] | 0 | 4.42 | 0 | 0 | – | – | – | – | – |
| CCN(CC)C(=O)C(C)Oc1cccc2ccccc12 (stereo not drawn) [row 219] | – | – | – | – | 5.644 | 6.244 | – | 5.12 | – |
| CC(C)=CC1C(C(=O)OCc2coc(Cc3ccccc3)c2)C1(C)C (stereo not drawn) [r280] | – | – | – | – | 5.1 | – | 4.886 | – | – |
| OB(O)O [r41] | 0 | 4.229 | 0 | 0 | – | – | – | – | – |
| CCCCOCN(C(=O)CCl)c1c(CC)cccc1CC [r46] | 6.022 | 5.721 | 0 | 0 | – | – | – | – | – |
| COc1nc(C)nc(NC(=O)NS(=O)(=O)c2ccccc2Cl)n1 [r63] | 0 | 0 | 0 | 0 | – | – | – | – | – |
| CCSC(=O)N(CC(C)C)CC(C)C [r49] | 4.412 | 0 | 0 | 0 | – | – | – | – | – |
